According to patent publication US9126947B2, “Substituted pyridazine carboxamide compounds” (Xcovery Holding Company LLC, priority 2010, dated 2015):

How the values were obtained:
[1] = system: SH-SY5Y intracranial tumor; experiment: SH-SY5Y intracranial tumor model; assay type: in vivo, Balb/C nude mice; conditions: oral gavage, vehicle 25 days
Method: Balb/C nude mice were anesthetized by i.p. injection of pentobarbital sodium (100 mg/kg body weight). One million SH-SY5Y cells in a volume of 10 μl full-culture medium were injected into the caudate putamen region using a small animal stereotactic apparatus. On the 7th day after implantation, the tumor-bearing mice were assigned into 4 groups, PF-1066, Example 18 low dose, Example 18 high dose, and vehicle were given twice daily (BID) by oral gavage, treatment was stopped until the animal is dead. Animal survival and body weight were observed and recorded.

[2] = Human microsomal stability; assay type: in vitro ADME; conditions: compared with Example 25 of WO 2009/154769; 1 μM, 1 mg/mL microsomes
Method: Pooled human liver microsomes (1 mg/mL) are incubated at 37° C. in phosphate buffer (pH 7.4) with the test compound (1 μM). The reaction is started with the addition of NADPH. (1 mM final concentration). Incubations are stopped after 0, 5, 10, 20, 40, 60 minutes with the addition of organic solvent. Quenched samples are analyzed for unchanged test compound by LC/MS/MS detection. Percent turnover is determined by the ratio of the amount (peak area) of unchanged test compound remaining in incubated samples to the amount of unchanged test compound in non-incubated samples (0 minutes). Half-life is calculated based on the percent turnover data.

H3122 tumor cells = experiment: Cell viability assay of tumor cells with ALK fusion proteins (H3122); assay type: cell-based; conditions: Homo sapiens, NCI-H3122; H3122, 72 hours post drug addition; read-out: Inhibition of H3122 tumor cell growth (IC50)
Method: (§1) At 72 hours post drug addition, Cell Titer Blue Reagent (Promega, Madison, Wis.) was added and fluorescence was measured on a Spectramax spectrophotometer (Molecular Devices, Sunnyvale, Calif.) according to the manufacturer's instructions. All experimental points were set up in hextuplicate replicates and were performed at least two independent times. IC50's were calculated using GraphPad Prism version 5 for Windows. The curves were fit using a nonlinear regression model with a log (inhibitor) vs. response formula.

ALK = ALK (Homo sapiens (Human), UniProt Q9UM73); experiment: Ambit kinase binding assay (ALK); conditions: read-out: ALK inhibitory activities in the Ambit assay (IC50)
ALK, sequence (Q9UM73 19-1620): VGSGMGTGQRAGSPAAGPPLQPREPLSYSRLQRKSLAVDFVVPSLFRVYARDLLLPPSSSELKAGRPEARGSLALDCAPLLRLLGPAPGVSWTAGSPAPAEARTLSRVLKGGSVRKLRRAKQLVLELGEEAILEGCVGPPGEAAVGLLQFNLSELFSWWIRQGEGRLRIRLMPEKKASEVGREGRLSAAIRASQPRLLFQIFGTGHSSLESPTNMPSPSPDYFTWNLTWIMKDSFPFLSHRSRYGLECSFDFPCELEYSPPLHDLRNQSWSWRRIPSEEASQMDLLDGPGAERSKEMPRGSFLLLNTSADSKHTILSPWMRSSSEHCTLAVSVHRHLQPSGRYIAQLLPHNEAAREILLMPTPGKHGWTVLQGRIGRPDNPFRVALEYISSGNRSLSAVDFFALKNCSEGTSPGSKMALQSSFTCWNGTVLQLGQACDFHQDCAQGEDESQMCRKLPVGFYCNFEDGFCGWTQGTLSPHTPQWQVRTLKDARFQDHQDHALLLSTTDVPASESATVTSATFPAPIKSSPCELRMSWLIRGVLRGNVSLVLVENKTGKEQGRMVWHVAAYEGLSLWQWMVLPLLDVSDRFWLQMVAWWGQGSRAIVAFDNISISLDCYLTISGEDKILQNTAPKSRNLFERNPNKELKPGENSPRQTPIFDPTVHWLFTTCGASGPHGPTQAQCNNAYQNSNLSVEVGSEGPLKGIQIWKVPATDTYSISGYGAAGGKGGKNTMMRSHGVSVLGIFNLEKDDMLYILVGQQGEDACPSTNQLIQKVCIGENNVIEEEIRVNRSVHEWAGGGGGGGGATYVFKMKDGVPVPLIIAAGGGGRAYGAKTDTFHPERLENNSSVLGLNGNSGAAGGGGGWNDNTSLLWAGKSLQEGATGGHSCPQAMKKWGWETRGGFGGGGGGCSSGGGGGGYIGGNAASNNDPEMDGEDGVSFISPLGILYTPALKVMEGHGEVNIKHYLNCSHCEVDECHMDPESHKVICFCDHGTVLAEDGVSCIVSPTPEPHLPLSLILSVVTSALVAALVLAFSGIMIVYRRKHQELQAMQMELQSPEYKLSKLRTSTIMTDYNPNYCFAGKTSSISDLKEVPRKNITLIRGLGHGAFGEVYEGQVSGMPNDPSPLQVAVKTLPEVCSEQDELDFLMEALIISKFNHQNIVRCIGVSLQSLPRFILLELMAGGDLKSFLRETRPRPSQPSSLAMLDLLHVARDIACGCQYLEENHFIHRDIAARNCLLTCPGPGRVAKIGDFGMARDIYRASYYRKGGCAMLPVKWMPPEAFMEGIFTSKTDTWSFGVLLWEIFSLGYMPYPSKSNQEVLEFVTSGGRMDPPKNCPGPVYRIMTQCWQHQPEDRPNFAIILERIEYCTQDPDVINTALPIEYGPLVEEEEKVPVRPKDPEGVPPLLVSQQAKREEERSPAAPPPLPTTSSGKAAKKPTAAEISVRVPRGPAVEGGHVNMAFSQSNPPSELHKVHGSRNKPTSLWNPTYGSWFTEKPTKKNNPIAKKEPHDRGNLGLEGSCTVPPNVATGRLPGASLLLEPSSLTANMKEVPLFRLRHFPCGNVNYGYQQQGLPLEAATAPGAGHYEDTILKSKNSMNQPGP
Method: For most assays, kinase-tagged T7 phage strains were grown in parallel in 24-well blocks in an E. coli host derived from the BL21 strain. E. coli were grown to log-phase and infected with T7 phage from a frozen stock (multiplicity of infection 0.1) and incubated with shaking at 32° C. until lysis (˜90 minutes). The lysates were centrifuged (6,000×g) and filtered ([…]) to remove cell debris. The remaining kinases were produced in HEK-293 cells and subsequently tagged with DNA for qPCR detection. […] The liganded beads were blocked with excess biotin and washed with blocking buffer (SeaBlock (Pierce), 1% BSA, 0.05% Tween 20, 1 mM DTT) to remove unbound ligand and to reduce non-specific phage binding. […] Test compounds were prepared as 40× stocks in 100% DMSO and directly diluted into the assay. All reactions were performed in polypropylene 384-well plates in a final volume of 0.04 ml. […] The kinase concentration in the eluates was measured by qPCR.

H2228 tumor cells = experiment: Cell viability assay of tumor cells with ALK fusion proteins (H2228); assay type: cell-based; conditions: Homo sapiens, NCI-H2228; H2228, 72 hours post drug addition; read-out: Inhibition of H2228 tumor cell growth (IC50)
Method: as §1

c-Met = c-Met (Homo sapiens (Human), UniProt P08581); experiment: Ambit kinase binding assay (c-Met)
c-Met, sequence (P08581 25-1390): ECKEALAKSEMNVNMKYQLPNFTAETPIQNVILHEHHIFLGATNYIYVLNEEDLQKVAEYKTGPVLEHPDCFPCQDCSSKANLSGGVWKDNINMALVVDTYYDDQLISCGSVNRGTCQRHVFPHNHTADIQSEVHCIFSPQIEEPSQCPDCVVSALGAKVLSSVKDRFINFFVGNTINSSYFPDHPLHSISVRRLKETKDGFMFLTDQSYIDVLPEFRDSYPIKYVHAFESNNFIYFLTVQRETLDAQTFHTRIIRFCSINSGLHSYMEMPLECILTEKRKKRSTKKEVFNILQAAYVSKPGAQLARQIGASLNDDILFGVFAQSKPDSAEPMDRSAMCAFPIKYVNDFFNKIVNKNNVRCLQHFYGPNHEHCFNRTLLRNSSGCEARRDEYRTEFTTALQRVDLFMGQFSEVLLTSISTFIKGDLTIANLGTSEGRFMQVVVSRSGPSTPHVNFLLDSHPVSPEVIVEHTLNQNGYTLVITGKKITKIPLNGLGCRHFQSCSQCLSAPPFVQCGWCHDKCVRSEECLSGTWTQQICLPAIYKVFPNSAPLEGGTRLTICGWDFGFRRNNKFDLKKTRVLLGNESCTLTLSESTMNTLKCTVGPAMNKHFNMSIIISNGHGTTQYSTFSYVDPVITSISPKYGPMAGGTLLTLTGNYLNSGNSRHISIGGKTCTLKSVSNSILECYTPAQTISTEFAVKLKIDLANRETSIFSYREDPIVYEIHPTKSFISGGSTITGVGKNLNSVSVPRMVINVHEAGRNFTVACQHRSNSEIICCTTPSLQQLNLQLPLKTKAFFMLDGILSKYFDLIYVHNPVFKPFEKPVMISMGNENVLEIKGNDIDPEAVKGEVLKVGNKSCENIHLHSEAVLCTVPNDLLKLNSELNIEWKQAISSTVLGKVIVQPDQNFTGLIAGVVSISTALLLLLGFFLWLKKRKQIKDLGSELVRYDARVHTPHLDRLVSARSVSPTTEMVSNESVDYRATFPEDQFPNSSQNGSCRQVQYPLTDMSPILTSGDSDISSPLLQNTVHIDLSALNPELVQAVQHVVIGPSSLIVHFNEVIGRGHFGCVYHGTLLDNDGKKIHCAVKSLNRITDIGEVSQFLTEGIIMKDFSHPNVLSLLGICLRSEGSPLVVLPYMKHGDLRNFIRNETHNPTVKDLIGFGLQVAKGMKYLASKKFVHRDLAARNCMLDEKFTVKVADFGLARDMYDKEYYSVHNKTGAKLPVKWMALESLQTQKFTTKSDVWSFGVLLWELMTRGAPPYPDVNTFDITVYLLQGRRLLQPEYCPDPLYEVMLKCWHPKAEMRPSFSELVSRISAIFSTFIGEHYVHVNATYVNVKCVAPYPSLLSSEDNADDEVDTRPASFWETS
Method: Assays were performed as described in Fabian et al. (2005) Nature Biotechnology, vol. 23, p. 329 and in Karaman et al. (2008) Nature Biotechnology, vol. 26, p. 127.
For most assays, kinase-tagged T7 phage strains were grown in parallel in 24-well blocks in an E. coli host derived from the BL21 strain. E. coli were grown to log-phase and infected with T7 phage from a frozen stock (multiplicity of infection 0.1) and incubated with shaking at 32° C. until lysis (˜90 minutes). The lysates were centrifuged (6,000×g) and filtered ([…]) to remove cell debris. The remaining kinases were produced in HEK-293 cells and subsequently tagged with DNA for qPCR detection. Streptavidin-coated magnetic beads were treated with biotinylated small molecule ligands for 30 minutes at room temperature to generate affinity resins for kinase assays. The liganded beads were blocked with excess biotin and washed with blocking buffer (SeaBlock (Pierce), 1% BSA, 0.05% Tween 20, 1 mM DTT) to remove unbound ligand and to reduce non-specific phage binding. […] Test compounds were prepared as 40× stocks in 100% DMSO and directly diluted into the assay. All reactions were performed in polypropylene 384-well plates in a final volume of 0.04 ml. The assay plates were incubated at room temperature with shaking for 1 hour and the affinity beads were washed with wash buffer (1×PBS, 0.05% Tween 20). The beads were then re-suspended in elution buffer (1×PBS, 0.05% Tween 20, 0.5 mM non-biotinylated affinity ligand) and incubated at room temperature with shaking for 30 minutes. The kinase concentration in the eluates was measured by qPCR.

H3122 cells = experiment: Cell apoptosis assay of tumor cells with ALK fusion proteins; assay type: cell-based; conditions: compared with PF-2341066 at the same concentration, 72 h, FIG. 1
Method: For apoptosis experiments, cells were seeded in 12 well plates at 25% confluency and treated in triplicate with ALK TKI. At 72 h post drug addition, cells were collected, washed in PBS, and stained with annexin V and propidium iodide according to the manufacturer's instructions (Vybrant Apooptosis Assay Kit, Invitrogen, Carlsbad, Calif.). Data were collected on a FACSCanto II (BD Biosciences, San Jose, Calif.) and processed using WinList flow cytometry analysis software (Verity Software, Topsham, Me.).

Brain penetration = assay type: in vivo; conditions: mice, two hours after dosing; compared with Example 1
Method: To determine if a compound can cross the blood-brain-barrier (BBB), mice are dosed with the test compound. Two hours after dosing, mice are sacrificed and blood and brain tissues are collected and analyzed for test compound concentration. Brain penetration is defined as ratio of compound concentration in the brain tissues to that in plasma.

Structure (SMILES): C[C@@H](Oc1cc(-c2cnn(C3CCNCC3)c2)cnc1N)c1c(Cl)ccc(F)c1Cl [PF-2341066, crizotinib, reference compound]
- Median survival time (MST) ([1]; 50 mg/kg BID): 28 days

Structure (SMILES): C[C@@H](Oc1cc(C(=O)Nc2ccc(C(=O)N3CCCNCC3)cc2)nnc1N)c1c(Cl)ccc(F)c1Cl [Example 16, {5-[(1R)-1-(2,6-dichloro-3-fluorophenyl)ethoxy]-6-aminopyridazin-3-yl}-N-[4-(1,4-diazaperhydroepinylcarbonyl)phenyl]carboxamide]
- Half-life in human liver microsomes [2]: longer half-life
- IC50 (H3122 tumor cells): < 30 nM
- IC50 (ALK): < 1 nM
- IC50 (H2228 tumor cells): < 100 nM

Structure (SMILES): C[C@@H](Oc1cc(C(=O)Nc2ccc(C(=O)N3CCNC(C)(C)C3)cc2)nnc1N)c1c(Cl)ccc(F)c1Cl [Example 17, {5-[(1R)-1-(2,6-dichloro-3-fluorophenyl)ethoxy]-6-aminopyridazin-3-yl}-N-{4-[(3,3-dimethylpiperazinyl)carbonyl]phenyl}carboxamide]
- IC50 (ALK): < 1 nM

Structure (SMILES): CC(Oc1cc(C(=O)Nc2ccc(N3CCOCC3)cc2)nnc1N)c1c(Cl)ccc(F)c1Cl (centres unmarked) [c, reference compound]
- IC50 (ALK): > 10 nM
- IC50 (c-Met): < 20 nM

Structure (SMILES): C[C@@H](Oc1cc(C(=O)Nc2ccc(C(=O)N3CCN4CCCC4C3)cc2)nnc1N)c1c(Cl)ccc(F)c1Cl (stereo partly drawn) [Example 13, {5-[(1R)-1-(2,6-dichloro-3-fluorophenyl)ethoxy]-6-aminopyridazin-3-yl}-N-{4-[(3,6-diazabicyclo[4.3.0]non-3-yl)carbonyl]phenyl}carboxamide]
- IC50 (ALK): < 1 nM

Structure (SMILES): C[C@@H](Oc1cc(C(=O)Nc2ccc(C(=O)N3CCN(C)CC3)cc2)nnc1N)c1c(Cl)ccc(F)c1Cl [Example 1, {5-[(1R)-1-(2,6-dichloro-3-fluorophenyl)ethoxy]-6-aminopyridazin-3-yl}-N-{4-[(4-methylpiperazinyl)carbonyl]phenyl}carboxamide]
- IC50 (H3122 tumor cells): < 50 nM
- IC50 (ALK): < 1 nM
- Induction of apoptosis in H3122 cells (H3122 cells): more effective
- IC50 (H2228 tumor cells): < 100 nM

Structure (SMILES): COc1ccc(NC(=O)c2cc(OC(C)c3c(Cl)ccc(F)c3Cl)c(N)nn2)cc1 (centres unmarked) [b, reference compound]
- IC50 (ALK): > 10 nM
- IC50 (c-Met): < 20 nM

Structure (SMILES): C[C@@H](Oc1cc(C(=O)Nc2ccc(C(=O)N3CCCN(C)CC3)cc2)nnc1N)c1c(Cl)ccc(F)c1Cl [Example 15, {5-[(1R)-1-(2,6-dichloro-3-fluorophenyl)ethoxy]-6-aminopyridazin-3-yl}-N-{4-[(4-methyl(1,4-diazaperhydroepinyl))carbonyl]phenyl}carboxamide]
- IC50 (ALK): < 1 nM

Structure (SMILES): C[C@H](Oc1cc(C(=O)Nc2ccc(C(=O)N3CCN(C)CC3)cc2)nnc1N)c1c(Cl)ccc(F)c1Cl [Example 2, {5-[(1S)-1-(2,6-dichloro-3-fluorophenyl)ethoxy]-6-aminopyridazin-3-yl}-N-{4-[(4-methylpiperazinyl)carbonyl]phenyl}carboxamide]
- IC50 (ALK): > 50 nM

Structure (SMILES): C[C@@H]1CN(C(=O)c2ccc(NC(=O)c3cc(O[C@H](C)c4c(Cl)ccc(F)c4Cl)c(N)nn3)cc2)C[C@H](C)N1 [Example 18, {5-[(1R)-1-(2,6-dichloro-3-fluorophenyl)ethoxy]-6-aminopyridazin-3-yl}-N-{4-[((3S,5R)-3,5-dimethylpiperazinyl)carbonyl]phenyl}carboxamide]
- Half-life in human liver microsomes [2]: longer half-life
- IC50 (H3122 tumor cells): < 30 nM
- IC50 (ALK): < 1 nM
- Brain penetration (ratio of concentration in brain tissues to plasma) (Brain penetration): higher brain penetration
- Median survival time (MST) ([1]; 25 mg/kg BID): 25 days
- Median survival time (MST) ([1]; 50 mg/kg BID): 34.5 days
- IC50 (H2228 tumor cells): < 100 nM

Structure (SMILES): CC(Oc1cc(C(=O)Nc2ccncc2)nnc1N)c1c(Cl)ccc(F)c1Cl (centres unmarked) [a, reference compound]
- IC50 (ALK): > 10 nM
- IC50 (c-Met): < 20 nM
